The target in the assay is JAK1 (recombinant purified GST-tagged catalytic domain) (Homo sapiens (Human), UniProt P23458). Description: biochemical.

Each structure is given as a SMILES string. pIC50: −log10 of the molar value.
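Note: biochemical assay with HTRF read-out.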

JAK1 (recombinant purified GST-tagged catalytic domain), sequence (P23458 875-1153): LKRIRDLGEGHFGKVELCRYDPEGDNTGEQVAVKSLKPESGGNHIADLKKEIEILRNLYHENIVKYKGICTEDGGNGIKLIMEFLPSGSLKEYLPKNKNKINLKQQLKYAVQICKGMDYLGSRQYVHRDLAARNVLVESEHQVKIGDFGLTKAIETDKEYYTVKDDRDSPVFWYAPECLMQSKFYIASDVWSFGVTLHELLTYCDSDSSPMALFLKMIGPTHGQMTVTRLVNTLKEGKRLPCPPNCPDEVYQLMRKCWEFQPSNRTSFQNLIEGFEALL

Regarding `COCC(C)N[C@H]1CCC(n2cc(C(N)=O)c(Nc3ccc(Cl)cc3)n2)[C@@H](C#N)C1` (single isomer, unassigned) [Example 28-238, 3-[(4-chlorophenyl)amino]-1-[(1S,2S,4S or 1R,2R,4R)-2-cyano-4-{[(1S)-2-methoxy-1-methylethyl]amino}cyclohexyl]-1H-pyrazole-4-carboxamide], the negative logarithm of the IC50 (pIC50) is 8.70. Next, `N#C[C@H]1CC(NCCO)CCC1n1cc(C(N)=O)c(Nc2ccc(S(=O)(=O)C(F)(F)F)cc2)n1` (mixture of isomers) [Example 27-15, 1-{(1S,2S and 1R,2R)-2-cyano-4-[(2-hydroxyethyl)amino]cyclohexyl}-3-({4-[(trifluoromethyl)sulfonyl]phenyl)amino)-l/f-pyrazolc-4-carboxamide]: 9.46; `COCC(C)(C)N[C@H]1CCC(n2cc(C(N)=O)c(Nc3ccc(Cl)cc3)n2)[C@@H](C#N)C1` (single isomer, unassigned) [Example 28-222, 3-[(4-chlorophenyl)amino]-1-{(1S,2S,4S or 1R,2R,4R)-2-cyano-4-[(2-methoxy-1,1-dimethylethyl)amino]cyclo-hexyl}-1H-pyrazole-4-carboxamide]: 9.10. Next, `CC1(C)CN([C@@H]2CC[C@H](n3cc(C(N)=O)c(Nc4ccnc(F)c4)n3)[C@@H](C#N)C2)C1` (single isomer, unassigned) [Example 28-142, 1-[(1S,2S,4R or 1R,2R,4S)-2-cyano-4-(3,3-dimethylazetidin-1-yl)cyclohexyl]-3-[(2-fluoropyridin-4-yl)amino]-1H-pyrazole-4-carboxamide]: 8.70. Turning to `N#C[C@H]1C[C@@H](N2CCC2)CC[C@@H]1n1cc(C(N)=O)c(Nc2ccc(CC(F)(F)F)cc2)n1` (single isomer, unassigned) [Example 28-69, 1-[(1S,2S,4S or 1R,2R,4R)-4-azetidin-1-yl-2-cyanocyclohexyl]-3-{[4-(2,2,2-trifluoroethyl)phenyl]amino}-1H-pyrazole-4-carboxamide], the pIC50 is 9.22. Regarding `N#C[C@H]1C[C@@H](NC2CCOCC2)CCC1n1cc(C(N)=O)c(Nc2ccc(Cl)cc2)n1` (single isomer, unassigned) [Example 28-218, 3-[(4-chlorophenyl)amino]-1-[(1S,2S,4S or 1R,2R,4R)-2-cyano-4-(tetrahydro-2H-pyran-4-ylamino)cyclohexyl]-1H-pyrazole-4-carboxamide], the pIC50 was 8.40. Consider `CN([C@H]1CC[C@H](n2cc(C(N)=O)c(Nc3ccc(Cl)cc3)n2)[C@@H](C#N)C1)C(C)(C)C` (single isomer, unassigned) [Example 28-6, 1-((1S,2S,4S or 1R,2R,4R)-4-(tert-butyl(methyl)amino)-2-cyanocyclohexyl)-3-((4-chlorophenyl)amino)-1H-pyrazole-4-carboxamide], for which the pIC50 was 9.26. Take `C[C@H](N[C@@H]1CC[C@H](n2cc(C(N)=O)c(Nc3ccc(OC(F)F)nc3)n2)[C@@H](C#N)C1)C1CC1` (single isomer, unassigned) [Example 28-13, 1-[(1S,2S,4R or 1R,2R,4S)-2-cyano-4-{[(1S)-1-cyclopropylethyl]amino}cyclo-hexyl]-3-{[6-(difluoromethoxy)pyridin-3-yl]amino}-1H-pyrazole-4-carboxamide]: the pIC50 was 7.96. `N#C[C@H]1C[C@H](O)CCC1n1cc(C(N)=O)c(Nc2ccnc(F)c2)n1` (single isomer, unassigned) [Example 25-25, 1-[(1S,2S,4R or 1R,2R,4S)-2-cyano-4-hydroxycyclohexyl]-3-[2-fluoropyridin-4-yl)amino]-1H-pyrazole-4-carboxamide]: the negative-log IC50 (pIC50) is 7.82. `C[C@@](O)(c1ccc(Nc2nn([C@H]3CCCC[C@@H]3C#N)cc2C(N)=O)cn1)C(F)(F)F` (single isomer, unassigned) [Example 17-35, 1-[(1S,2S or 1R,2R)-2-cyanocyclohexyl]-3-({6-[(1R or 1S)-2,2,2-trifluoro-1-hydroxy-1-methylethyl]pyridin-3-yl}amino)-1H)-pyrazole-4-carboxamide]: the pIC50 was 8.52.

The record behind these values is patent US8962608B2, “Cycloalkylnitrile pyrazole carboxamides as janus kinase inhibitors” (Merck Sharp & Dohme Corp., priority 2011, dated 2015).
